Laboratory results reported in patent publication US20160024083A1, “COMPOUNDS AND METHODS FOR TREATING CANCERS” (HEALTH RESEARCH, INC., priority 2013, published 2016).
pIC50: −log10 of the molar value.

Tests used:
[1] = Aqueous solubility (pH 7.4); format: physicochemical
[2] = Metabolic stability in the presence of mouse liver microsomes; format: in vitro ADME; conditions: for metabolic stability, % left: after 30 minute incubation with mouse liver microsome
[3] = Solubility for in vivo administration; format: physicochemical; conditions: tested for PK using IP injection of the drug in suspension
Mdm2 = Mdm2 accumulation, Western Blot; format: cell-based; conditions: MCF7 cells with functionally inactive p53 (R175H, GSE56)
Experimental: Results of Western Blot analysis: CWR22r cells were treated with 1 uM c52 for indicated time intervals.
Also tested was the hypothesis that degradation of androgen receptor in prostate and breast cancer cells may be due to p53 induced accumulation of mdm2, which is also ubiquitin ligase for androgen receptor (FIG. 15). p53 was inactivated in several cell lines using different approaches what led to the blockade of mdm2 accumulation after c52 treatment. However androgen receptor was still degraded in c52 treated cells even in the absence of p53 activation and mdm2 accumulation (FIG. 16).

[4] = Tissue drug concentrations (tumor, liver, plasma) in treated CWR22R tumor-bearing mice; format: in vivo
Experimental: (§1) We tested these compounds in an in vivo efficacy experiment using model of CRPC in SCID mice, CWR22R. Two compounds, PLA1079 and 1125, which were synthesized in the amount of 500 mg were tested in full scale experiment with either 5 IV daily injections or 10 IP daily injections. After 5 IP or IV injections intra-tumor concentration of the compounds were measured in few mice from this experiment.
Two other compounds, PLA1148 and 1098 (PK testing in FIGS. 8 and 9) were tested in a small scale efficacy experiment. Upon PK testing of the compound PLA1148 one mouse was injected twice with 10 min interval. However the concentration of the drug in plasma of this mouse was not twice, but >4 times higher than in mice injected once. […] It was decided to utilize this observation in an attempt to get higher plasma and tumor concentration of both compounds. Therefore in the pilot efficacy experiment in the same model of CWR22R cells mice were treated with 2 IP injections with 10 minute interval. Treatment with PLA1098 was carried out for two days. […] However this is so far the highest concentration found in tumor. […]
(§2) LC50 data of in vitro 72 hours cytotoxicity assay are included in this table for comparison.

CWR22R = experiment: cells; format: cell-based; conditions: for pIC50: Homo sapiens, 22Rv1, CWR22R, read-out: IC50 for inhibition of growth
Experimental: FIG. 21. Toxicity of PLA1055 to CWR22R cells in vitro depending on time of incubation. PLA1055 was added to CWR22R in full range of concentrations for the periods of time shown on the right. After that drug containing media were changed for drug free and survival of cells was detected at 72 hours after start of treatment using Alamar Blue assay (Promega).
(§3) This example provides a table (below) of the compounds of the present disclosure and their activity towards four different cell lines (i.e., CWR22R, HeLa, PC3, and MDA-MB-231). The IC50 for inhibition of growth is divided into 4 categories: A<1 μM, B 1-5 μM, C 5-20 μM, D>20 μM.
(§4) All compounds were tested for toxicity using 4 cells lines, target cells—CWR22R and non-target cells, Hela, PC3 and MDA-MB-231 (FIGS. 1A-F).
as §2
An in vitro experiment was run to detect the concentration of PLA1055 needed to kill all tumor cells in vitro (LC90) during different periods of time (30 minutes-72 hours, FIG. 21)).

[5] = test system: presumable target protein; experiment: DARTS (Drug Affinity Responsive Target Stability) assay in CWR22r lysates; format: binding; conditions: protein lysates from CWR22r cells
Experimental: FIG. 24. DARTS (Drug Affinity Responsive Target Stability) assay was performed using c52 and PLA1118. According to this assay these compounds are capable of protecting presumable target protein from protease degradation. Protein lysates from sensitive CWR22r cells were incubated with or without the drug and subsequently digested with the indicated concentration of pronase. A. c52 was used (lane T-treated, M-marker) with indicated concentrations of pronase; ability of c52 to protect its target from protease cleavage was judged based on presence of protein band in the treated lane vs the untreated (UT) control.
Target identification through affinity chromatography and sensitivity to proteolysis methods was undertaken. […] These bands were excised from gel and sent for protein sequencing. (FIG. 24).

[6] = Plasma concentration (PK) after intravenous and intraperitoneal injections; format: in vivo; conditions: for plasma concentration time course: after IV and IP injections; for plasma concentration time course / bioavailability through IP injection: 50-100 mg/kg; for bioavailability through IP injection: plasma concentrations similar or even higher after IP than IV
CWR22R tumors = experiment: In vivo efficacy, subcutaneous xenografts of CWR22R cells in SCID mice
Experimental: as §1
(§5) Two other compounds, PLA1148 and 1098 (PK testing in FIGS. 8 and 9) were tested in a small scale efficacy experiment. Upon PK testing of the compound PLA1148 one mouse was injected twice with 10 min interval. However the concentration of the drug in plasma of this mouse was not twice, but >4 times higher than in mice injected once. […] It was decided to utilize this observation in an attempt to get higher plasma and tumor concentration of both compounds. Therefore in the pilot efficacy experiment in the same model of CWR22R cells mice were treated with 2 IP injections with 10 minute interval. Treatment with PLA1098 was carried out for two days. […] However this is so far the highest concentration found in tumor.
Pilot efficacy experiments were run for compounds: PLA1163, PLA1148 using the same model of subcutaneous xenografts of CWR22R cells in SCID mice (FIGS. 18 and 19).

[7] = Toxicity / side effects in treated mice; format: in vivo
Experimental: as §5
This compound may be also potentially promising.

MDA-MB-231 = experiment: Inhibition of growth / toxicity in non-target MDA-MB-231 cells; format: cell-based; conditions: Homo sapiens
Experimental: as §3, §4

Hela = experiment: Inhibition of growth / toxicity in non-target Hela cells; format: cell-based; conditions: Homo sapiens, HeLa
Experimental: as §3, §4

PC3 = experiment: Inhibition of growth / toxicity in non-target PC3 cells; format: cell-based; conditions: Homo sapiens, PC-3
Experimental: as §3, §4

[8] = classification (Stable/Moderate/Unstable), lines whose second value is in %
[9] = in %, table title: Metabolic stability and solubility, % left after 30 minute incubation with mouse liver microsome
[10] = one mouse, 24 hours after injections
[11] = single IV administration of 50 mg/kg (FIG. 20)

## O=c1[nH]ccc2c1ccc1c2c2ncccc2n1CCCF [PLA1181]
[1]
  Aqueous Solubility Classification: Low
[1]; pH 7.4
  Aqueous Solubility Classification: Low

## O=c1c2ccc3c(c2ccn1CCO)c1ccccc1n3CCCF [PLA1192]
[2]; [8]
  Aqueous Solubility Classification: Moderate
[2]; [9]
  Metabolic stability, % left after 30 min with mouse liver microsomes: 27%
[1]; pH 7.4
  Aqueous Solubility (pH 7.4): 15 μM
  Aqueous Solubility Classification: Moderate

## O=C1CCc2c1ccc1c2c2cc(Br)ccc2n1CCCF [PLA1199]
[2]; [8]
  Metabolic stability, % left after 30 min with mouse liver microsomes: Moderate
[2]; [9]
  Metabolic stability, % left after 30 min with mouse liver microsomes: 42%
[1]; pH 7.4
  Aqueous Solubility (pH 7.4): 2.3 μM
  Aqueous Solubility Classification: Low

## O=c1[nH]ccc2c1ccc1c2c2ccccc2n1CCCF [PLA1121]
[3]
  solubility: poorly soluble

## CC(=O)c1ccc2c(c1)c1cc(C(C)=O)ccc1n2CCNC(C)C [CBL 137, reference compound]
Mdm2
  Mdm2 level: Mdm2 is no longer overexpressed

## N#Cc1cccc2c1c1c3cc[nH]c(=O)c3ccc1n2CCCF [PLA1195]
[2]; [8]
  Metabolic stability, % left after 30 min with mouse liver microsomes: Moderate
[2]; [9]
  Metabolic stability, % left after 30 min with mouse liver microsomes: 63%
[1]; pH 7.4
  Aqueous Solubility (pH 7.4): 2.7 μM
  Aqueous Solubility Classification: Low

## O=C1CCc2c1ccc1c2c2c(F)cccc2n1CCCF [PLA1197]
[2]
  metabolic stability, % left: 77%
[2]; [8]
  Metabolic stability, % left after 30 min with mouse liver microsomes: Stable
[2]; [9]
  Metabolic stability, % left after 30 min with mouse liver microsomes: 73%
[1]; pH 7.4
  Aqueous Solubility (pH 7.4): 4.0 μM
  Aqueous Solubility Classification: Low

## O=C1NCCOc2c1ccc1c2c2ccccc2n1CCCF [PLA1163]
[4]; 40 mg/kg, IP
  Liver: 307 nM
  Tumor concentration: 4 to 10 nM
[3]
  solubility: poorly soluble
CWR22R
  CC50: 0.2 µM

## CN1Cc2c(ccc3c2c2ccccc2n3CCC(F)F)C1=O [PLA1194]
[2]; [8]
  Aqueous Solubility Classification: Moderate
[2]; [9]
  Metabolic stability, % left after 30 min with mouse liver microsomes: 28%
[1]; pH 7.4
  Aqueous Solubility (pH 7.4): 18 μM
  Aqueous Solubility Classification: Moderate

## CC(=O)c1ccc2c(c1)c1c(C(N)=O)cccc1n2CCCF [PLA1191]
[2]; [8]
  Metabolic stability, % left after 30 min with mouse liver microsomes: Moderate
[2]; [9]
  Metabolic stability, % left after 30 min with mouse liver microsomes: 30%
[1]; pH 7.4
  Aqueous Solubility (pH 7.4): 130 μM
  Aqueous Solubility Classification: High

## CCCn1c2ccccc2c2cc(S(C)(=O)=O)ccc21 [PLA1118]
[5]
  protection of target protein from pronase degradation: faintly

## O=C1NCCc2c1ccc1c2c2ncccc2n1CCCF [PLA1148]
[4]; 50 mg/kg, IP
  Liver: 50 nM
  Tumor concentration: 0 to 90 nM
[4]; 48 hours after treatment
  Tumor concentration: 84 nM
  liver concentration: 49 nM
[4]; 48 hours after treatment, compared with 24 hours (8.5 nM)
  plasma concentration: The same plasma concentration
[4]; [10]
  drug in liver: no drug detected
  drug in tumor: no drug detected
  plasma concentration: 8.5 nM
[6]
  plasma concentration time course: fast reduction of concentration during the first hour
  bioavailability through IP injection: very high
[6]; two injections with 10 min interval
  plasma concentration of mouse injected twice versus mice injected once: > 4 times
CWR22R tumors; CWR22R, two mice
  tumors of mice that died on the 5th day: almost undetectable tumors
[7]; 2 IP injections with 10 minute interval, one day, symptoms suggested acute liver failure
  acute toxicity: acute toxicity developed quickly after injection
[7]; after one day of injections
  mortality: 2 mice died next day and 3 other during next 5 days

## O=c1[nH]c2ccc3c(c4ccccc4n3CCCF)c2o1 [PLA1190]
[2]
  metabolic stability, % left: 70%
[2]; [8]
  Metabolic stability, % left after 30 min with mouse liver microsomes: Stable
[2]; [9]
  Metabolic stability, % left after 30 min with mouse liver microsomes: 77%
[1]; pH 7.4
  Aqueous Solubility (pH 7.4): 3.5 μM
  Aqueous Solubility Classification: Low

## O=C1COc2c(ccc3c2c2ncccc2n3CCCF)N1 [PLA1183]
[1]
  Aqueous Solubility Classification: Moderate
[1]; pH 7.4
  Aqueous Solubility Classification: Low

## CC(=O)c1ccc2c(c1)c1ccccc1n2CCCF [PLA1055]
[6]; [11]
  plasma concentration at 8 hours: below 1 uM
  time up to which compound was detected in plasma: up to 24 hours
CWR22R
  CC50: 0.04 µM
CWR22R; CWR22R, incubation 4-8 hours, survival at 72 hours, Alamar Blue assay
  LC90: 2.5 µM

## O=c1c2ccc3c(c2ccn1CCN1CCCC1)c1ccccc1n3CCCF [PLA1193]
[2]; [8]
  Metabolic stability, % left after 30 min with mouse liver microsomes: Unstable
[2]; [9]
  Metabolic stability, % left after 30 min with mouse liver microsomes: 3%
[1]; pH 7.4
  Aqueous Solubility (pH 7.4): 140 μM
  Aqueous Solubility Classification: High

## CC(=O)c1ccc2c(c1)c1c3c(ccc1n2CCCF)C(=O)CC3 [PLA1198]
[2]; [8]
  Metabolic stability, % left after 30 min with mouse liver microsomes: Moderate
[2]; [9]
  Metabolic stability, % left after 30 min with mouse liver microsomes: 46%
[1]; pH 7.4
  Aqueous Solubility (pH 7.4): 2.5 μM
  Aqueous Solubility Classification: Low

## NC(=O)c1cccc2c1c1c3cc[nH]c(=O)c3ccc1n2CCCF [PLA1196]
[2]; [8]
  Aqueous Solubility Classification: Moderate
[2]; [9]
  Metabolic stability, % left after 30 min with mouse liver microsomes: 65%
[1]; pH 7.4
  Aqueous Solubility (pH 7.4): 26 μM
  Aqueous Solubility Classification: Moderate

## FCCCn1c2ccccc2c2cc(-c3nnco3)ccc21 [PLA1125]
[4]; 100 mg/kg, IP/IV
  Tumor concentration: 7 to 10 nM
[4]; mouse, in vivo
  intra-tumor concentration relative to LC50% in vitro: significantly below LC50%
[6]
  plasma concentration time course: fast reduction of concentration during the first hour
  bioavailability through IP injection: very high
CWR22R tumors; CWR22R in SCID mice, 5 IV daily injections or 10 IP daily injections
  in vivo efficacy: absence of in vivo efficacy
CWR22R
  CC50: 0.1 µM

## CCCn1c2ccccc2c2cc(-c3nncs3)ccc21 [Compound 8-3]
MDA-MB-231
  pIC50: < 4.70
Hela
  pIC50: < 4.70
CWR22R
  pIC50: < 4.70
PC3
  pIC50: < 4.70

## CCCn1c2ccccc2c2c3cc[nH]c(=O)c3ccc21 [PLA1099]
[3]
  solubility: poorly soluble

## CCCn1c2ccccc2c2cc(C(C)=O)ncc21 [Compound 17-3]
MDA-MB-231
  pIC50: < 4.70
Hela
  pIC50: < 4.70
CWR22R
  pIC50: 4.70 to 5.30
PC3
  pIC50: < 4.70
